Test system: HMT3522 T4-2 cells
Assay: Percent cell death in 2D monolayer, 3D rBM and reverted cultures (active caspase 3)
Format: cell-based, human
From the text: The oligonucleotides specifying the small hairpin RNAs (shRNAs) were subcloned from pSilencer-H1 into pLZRS-MFG-CMV-Neo-U6, a recombinant self-inactivating retroviral vector constructed from the backbone of an MFG provirus (Proc. Natl. Acad. Sci. USA 85:6460-6464 (1988); Proc. Natl. Acad. Sci. USA 90:3539-3543 (1993)), which directs the expression of shRNA under the control of the U6 promoter. Amphotropic retrovirus was produced in Phoenix ampho cells (provided by Professor G. Nolan, Stanford Medical Center) with packaging vectors pCgp and pVSVG to boost viral titer. S1 cells or T4-2 cells, maintained in monolayer cultures, were then spin infected with retrovirus carrying the various RNAi constructs and infected cell populations were selected using 300 μg/ml G418 (Invitrogen).
Non-neoplastic HMT3522 S1 breast epithelial cells or neoplastic HMT3522 T4-2 cells were embedded (8.5×10^5/ml) within reconstituted basement membrane (rBM) gel (Matrigcl, BD Biosciences) in chamber slides (Lab-Tek chamber slides, Nunc) according to the procedures described in U.S. Pat. No. 6,123,941 and Nat. Method. 4:359-365 (2007). […] Phenotypic reversion of HMT3522 T4-2 cells in three dimensional rBM cultures was performed using an epidermal growth factor receptor (EGFR) specific tyrosine kinase inhibitor tyrphostin AG 1478 (100 nM) (Calbiochem), as previously described (Proc. Natl. Acad. Sci. USA 95:14821-14826 (1998))
Apoptotic cell death of the breast epithelial cells cultured in three dimensional rBM was initiated by treatment with recombinant, purified human tumor necrosis factor-related apoptosis-inducing ligand (TRAIL) peptides (BIOMOL) or Paclitaxel (Sigma-Aldrich) as described (Cancer Cell 2:205-216 (2002)). DNA damage-induced cell death was initiated by ionizing radiation (IR) using a Mark I Cesium 137 irradiator (JL Shepherd & Associates).
Percent cell death induced by TRAIL or Paclitaxel was quantified using detection of active caspase 3 (Cell Signaling) by indirect immunofluorescence as described (J. Cell Biol. 163:1397-1407 (2003)). Percent cell death induced by IR was quantified using Live/Dead Viability/Cytotoxicity Assay (Molecular Probes). For both methods, cells were counterstained with 4′,6-diamidino-2-phenylindole (DAPI) to label cell nuclei present at different focal planes in the 3D architectures. Percent death was calculated as cells positive for ethidium bromide or active caspase 3 expressed as a percentage of the total number of cells scored by the nuclear staining.
Percent cell death induced by TRAIL was quantified using detection of active caspasc 3 as described in Example 4.

| Molecule | death sensitivity of cells cultured in 3D rBM (3D rBM disorganized aggregates vs 2D monolayer, TRAIL 1.0 μg/mL, Paclitaxel 20 μM) | death sensitivity of structurally reverted spheroids (reverted with tyrphostin AG 1478 in 3D rBM, TRAIL 1.0 μg/mL, Paclitaxel 20 μM) | sensitivity to the TRAIL treatment of N-CoR2-overexpressed cells (HDAC3 simultaneously downregulated by retrovirus-mediated RNAi) |
| --- | --- | --- | --- |
| CC(=O)O[C@H]1C(=O)[C@@]2(C)[C@H]([C@H](OC(=O)c3ccccc3)[C@]3(O)C[C@H](OC(=O)[C@H](O)[C@@H](NC(=O)c4ccccc4)c4ccccc4)C(C)=C1C3(C)C)[C@]1(OC(C)=O)CO[C@@H]1C[C@@H]2O [Paclitaxel, reference compound] | decreased sensitivity | further decrease in the sensitivity | – |
| HDAC3 shRNA: retrovirally expressed small hairpin RNA, siRNA sequence 5′-AAGATGCTGAACCATGCACCT-3′ (SEQ ID NO:2) for HDAC3 | – | – | restored to an extent comparable to that of vehicle-treated cells |

— patent US8257928B2, “Methods for predicting and treating tumors resistant to drug, immunotherapy and radiation” (The Regents of the University of California, priority 2008, dated 2012)
